Columns and labels:
Botrytis cinerea = experiment: Efficacy against Botrytis cinerea on gherkin plants (preventive spray); type: in vivo; details: grading 5 to 7 days after contamination
Procedure: (§1) The active ingredients tested are prepared by potter homogenisation in a mixture of acetone/tween/water. This suspension is then diluted with water to obtain the desired active material concentration.
(§2) Gherkin plants (Petit vert de Paris variety) in starter cups, sown on a 50/50 peat soil-pozzolana substrate and grown at 18-20° C., are treated at the cotyledon Z11 stage by spraying with the aqueous suspension described above. Plants, used as controls, are treated with an aqueous solution not containing the active material.
After 24 hours, the plants are contaminated by depositing drops of an aqueous suspension of Botrytis cinerea spores (150,000 spores per ml) on upper surface of the leaves. The spores are collected from a 15-day-old culture and are suspended in a nutrient solution composed of: • 20 g/L of gelatine • 50 g/L of cane sugar • 2 g/L of NH4NO3 • 1 g/L of KH2PO4
The contaminated gherkin plants are settled for 5/7 days in a climatic room at 15-11° C. (day/night) and at 80% relative humidity. Grading is carried out 5 to 7 days after contamination, in comparison with the control plants.
as §2, with “Z 11” for “Z11”
(§3) The formulated compounds are diluted with water to obtain the desired active material concentration.

Alternaria brassicae [1] = experiment: Efficacy against Alternaria brassicae on radish plants (preventive spray); type: in vivo; details: Example 13, dose 111 ppm, grading 6 to 7 days after contamination
Procedure: as §3
Radish plants (Pernot variety) in starter cups, sown on a 50/50 peat soil-pozzolana substrate and grown at 18-20° C., are treated at the cotyledon stage by spraying with the aqueous suspension described above.
(§4) Plants, used as controls, are treated with an aqueous solution not containing the active material.
After 24 hours, the plants are contaminated by spraying them with an aqueous suspension of Alternaria brassicae spores (40,000 spores per cm^3). The spores are collected from a 12-13-day-old culture.
The contaminated radish plants are incubated for 6-7 days at about 18° C., under a humid atmosphere.
Grading is carried out 6 to 7 days after the contamination, in comparison with the control plants.

[2] = system: Erysiphe graminis f. sp. tritici; experiment: Efficacy against Erysiphe graminis f. sp. tritici on wheat plants (preventive spray); type: in vivo; details: grading 7 to 14 days after contamination
Procedure: as §1
(§5) Wheat plants (Audace variety) in starter cups, sown on 50/50 peat soil-pozzolana substrate and grown at 12° C., are treated at the 1-leaf stage (10 cm tall) by spraying with the aqueous suspension described above.
as §4
After 24 hours, the plants are contaminated by dusting them with Erysiphe graminis f. sp. tritici spores, the dusting being carried out using diseased plants.
Grading is carried out 7 to 14 days after the contamination, in comparison with the control plants.
as §3
as §5, with “above. Plants, used as controls, are treated with an aqueous solution not containing the active material.” for “above.”

Pyrenophora teres = experiment: Efficacy against Pyrenophora teres on barley plants (preventive spray); type: in vivo; details: 288 h, grading 12 days after contamination
Procedure: as §1
as §2, with “Barley” for “Gherkin”, “(Express” for “(Petit vert de Paris”, “12°” for “18-20°”, “1-leaf” for “cotyledon Z11”, “stage (10 cm tall)” for “stage”
After 24 hours, the plants are contaminated by spraying them with an aqueous suspension of Pyrenophora teres spores (12 000 spores per ml). The spores are collected from a 12-day-old culture. The contaminated barley plants are incubated for 24 hours at about 20° C. and at 100% relative humidity, and then for 12 days at 80% relative humidity.
Grading (% of efficacy) is carried out 12 days after the contamination, in comparison with the control plants.

Alternaria brassicae [3] = experiment: Efficacy against Alternaria brassicae (in vitro), growth on PDA medium; type: cell-based; details: radial growth after 14 days
Procedure: The growth of Alternaria brassicae was followed on PDA medium containing the compounds alone or in mixtures. The PDA medium is prepared by mixing 39 grams of PDA (Merck) in 1 litter of demineralised water. The medium is sterilized by autoclave 15 minutes at 121° C. The compounds are dissolved in acetone and added to the medium before pouring it in Petri dishes. After medium drying, the fungus is inoculated on the medium and allowed to growth at 19° C. The percentage of efficacy is noted after 14 days of growth (measurement of the radial growth) of the fungus in comparison with a control. […]

Sphaerotheca fuliginea = experiment: Efficacy against Sphaerotheca fuliginea on gherkin plants (preventive spray); type: in vivo; details: Podosphaera fuliginea, 504 h, grading 21 days after contamination
Procedure: as §1
as §2, with “(Vert petit” for “(Petit vert”, “20° C./23°” for “18-20°”, “2-leaves” for “cotyledon Z11”
After 24 hours, the plants are contaminated by spraying them with an aqueous suspension of Sphaerotheca fuliginea spores (100 000 spores per ml). The spores are collected from a contaminated plants. The contaminated gherkin plants are incubated at about 20° C./25° C. and at 60/70% relative humidity.
Grading (% of efficacy) is carried out 21 days after the contamination, in comparison with the control plants.

With `CO/N=C(/C(=O)OC)c1ccccc1COc1ccccc1C` [Kresoxim-methyl, kresoxim-methyl, reference compound] the Emax at 37 ppm (Botrytis cinerea; Botrytis cinerea, Example 5, dose 37 ppm) was 0%, the Emax at 111 ppm (Botrytis cinerea; Botrytis cinerea, Example 5, dose 111 ppm) was 0% and the Emax at 333 ppm (Botrytis cinerea; Botrytis cinerea, Example 5, dose 333 ppm) was 0%.
`CO/C=C(/C(=O)OC)c1ccccc1COc1cccc(C(F)(F)F)n1` [Picoxystrobin, picoxystrobin, reference compound] was tested, and the “% Efficacy” value (Botrytis cinerea; Example 6, dose 37 ppm) was 0%, the “% Efficacy” value (Botrytis cinerea; Example 6, dose 111 ppm) was 35% and the “% Efficacy” value (Botrytis cinerea; Example 6, dose 333 ppm) was 40%.
In the case of `CSC1=N[C@@](C)(c2ccccc2)C(=O)N1Nc1ccccc1` [Fenamidone, fenamidone, reference compound], the Emax at 111 ppm (Alternaria brassicae [1]) is reported as 55%.
Compound `COC(=O)N(OC)c1ccccc1COc1ccn(-c2ccc(Cl)cc2)n1` [Pyraclostrobin, pyraclostrobin, reference compound] has an Emax at 37 ppm (Botrytis cinerea; Botrytis cinerea, Example 7, dose 37 ppm) of 0%, an Emax at 111 ppm (Botrytis cinerea; Botrytis cinerea, Example 7, dose 111 ppm) of 0% and an Emax at 333 ppm (Botrytis cinerea; Botrytis cinerea, Example 7, dose 333 ppm) of 0%.
For `CNC(=O)/C(=N/OC)c1ccccc1COc1cc(C)ccc1C` [Dimoxystrobin, dimoxystrobin, reference compound], the “% Efficacy” value ([2]; Example 9, dose 62.5 g/ha, formulated compounds) was 0%.
For `CNC(=O)C(=NOC)c1ccccc1Oc1ncnc(Oc2cccc(Cl)c2C)c1F` [Compound A, 2-{2-[6-(3-Chloro-2-methylphenoxy)-5-fluoro-pyrimidin-4-yloxy]-phenyl}2-methoxyimino-N-methylacetamide], the Emax at 37 ppm (Botrytis cinerea; Botrytis cinerea, Example 8, dose 37 ppm) was 0%, the Emax at 111 ppm (Botrytis cinerea; Botrytis cinerea, Example 8, dose 111 ppm) was 0% and the Emax at 333 ppm (Botrytis cinerea; Botrytis cinerea, Example 8, dose 333 ppm) was 0%.
In the case of `CO/N=C(/C1=NOCCO1)c1ccccc1Oc1ncnc(Oc2ccccc2Cl)c1F` [Fluoxastrobin, fluoxastrobin, reference compound], the Emax at 15 ppm ([2]; Blumeria graminis, Example 4, dose 15 ppm) is reported as 20%.
Compound `Cc1nn(C)c(F)c1C(=O)Nc1ccccc1C(C)CC(C)C` (centres unmarked) [Compound B, N-[2-(1,3-dimethyl-butyl)-phenyl]-5-fluoro-1,3-dimethyl-1H-pyrazole-4-carboxamide] has an Emax at 4 ppm (Botrytis cinerea; Botrytis cinerea, Example 10, dose 4 ppm) of 32%.
For `CON=C(C(=O)OC)c1ccccc1CON=C(C)c1cccc(C(F)(F)F)c1` [Trifloxystrobin, trifloxystrobin], the Emax at 4 g/ha (Pyrenophora teres; Example 1, dose 4 g/ha) was 50%, the Emax at 8 g/ha (Pyrenophora teres; Example 1, dose 8 g/ha) was 70% and the Emax at 0.025 ppm (Alternaria brassicae [3]; Alternaria brassicae, 336 h, Example 2, dose 0.025 ppm) was 45%. For the same compound, the Emax at 0.05 ppm (Alternaria brassicae [3]; Alternaria brassicae, 336 h, Example 2, dose 0.05 ppm) was 44%, the Emax at 0.1 ppm (Alternaria brassicae [3]; Alternaria brassicae, 336 h, Example 2, dose 0.1 ppm) was 45% and the Emax at 0.25 ppm (Alternaria brassicae [3]; Alternaria brassicae, 336 h, Example 2, dose 0.25 ppm) was 53%. It also gave an Emax at 0.5 ppm (Alternaria brassicae [3]; Alternaria brassicae, 336 h, Example 2, dose 0.5 ppm) of 60%, an Emax at 1 ppm (Alternaria brassicae [3]; Alternaria brassicae, 336 h, Example 2, dose 1 ppm) of 65% and an Emax at 2.5 ppm (Alternaria brassicae [3]; Alternaria brassicae, 336 h, Example 2, dose 2.5 ppm) of 71%.
`CO/C=C(/C(=O)OC)c1ccccc1Oc1cc(Oc2ccccc2C#N)ncn1` [Azoxystrobin, azoxystrobin] was tested, and the “% Efficacy” value (Alternaria brassicae [3]; Example 3, dose 0.025 ppm) was 38%, the “% Efficacy” value (Alternaria brassicae [3]; Example 3, dose 0.05 ppm) was 41% and the “% Efficacy” value (Alternaria brassicae [3]; Example 3, dose 0.1 ppm) was 47%. The “% Efficacy” value (Alternaria brassicae [3]; Example 3, dose 0.25 ppm) was 56%, the “% Efficacy” value (Alternaria brassicae [3]; Example 3, dose 0.5 ppm) was 47% and the “% Efficacy” value (Alternaria brassicae [3]; Example 3, dose 1 ppm) was 48%. For the same compound, the “% Efficacy” value (Alternaria brassicae [3]; Example 3, dose 2.5 ppm) was 49%.
`CC(C)CC(C)c1sccc1NC(=O)c1cn(C)nc1C(F)(F)F` (centres unmarked) [Compound D, N-[2-(1,3-dimethylbutyl)-thiophen-3-yl]1-methyl-3-(trifluoromethyl)-1H-pyrazole-4-carboxamide] was tested, and the Emax at 250 ppm (Botrytis cinerea; Botrytis cinerea, Example 14, dose 250 ppm, formulated compounds) was 60%.
With `Cn1cc(C(=O)Nc2ccc(F)cc2-c2ccc(Cl)c(Cl)c2)c(C(F)F)n1` [Compound C, N-(3′,4′-dichloro-5-fluorobiphenyl-2-yl)-3-(difluoro-methyl)-1-methyl-1H-pyrazole-4-carboxamide] the Emax at 31.2 ppm (Sphaerotheca fuliginea; Example 12, dose 31.2 ppm) was 0% and the Emax at 62.5 ppm (Sphaerotheca fuliginea; Example 12, dose 62.5 ppm) was 0%.
`O=C(Nc1ccccc1-c1ccc(Cl)cc1)c1cccnc1Cl` [Boscalid, boscalid, reference compound] gave an Emax at 4 ppm (Sphaerotheca fuliginea; Example 11, dose 4 ppm) of 0%, an Emax at 8 ppm (Sphaerotheca fuliginea; Example 11, dose 8 ppm) of 10% and an Emax at 15 ppm (Sphaerotheca fuliginea; Example 11, dose 15 ppm) of 45%.
